From patent US20100279990A1, “ANTIPROLIFERATIVE COMPOUNDS, COMPOSITIONS AND METHODS OF USE” (RAMOT AT TEL-AVIV UNIVERSITY LTD., priority 2006, published 2010)
Read-outs that look alike come from different tables or passages of the source.

Experiments:
[1] = test system: human Jurkat lymphoma cells; experiment: Viability of human Jurkat lymphoma cells, dexamethasone alone and in combination; type: cell-based; details: Homo sapiens, 20 μM alone, FIG. 13B, read-out: inhibition of cell viability
[2] = test system: human colon carcinoma cells (HT29)
[3] = test system: human glioma U87 cells; experiment: Viability of human glioma U87 cell-line; type: cell-based; details: FIG. 9
[4] = test system: human colon carcinoma cells (HT29); experiment: cells; details: HT-29, read-out: cell viability
[5] = test system: c-jun and p-c-jun expression in HaCat cells; experiment: Western blot of c-jun and p-c-jun expression in HaCat cells; type: cell-based, human; details: 15 μM, 1 hr
Source text: For each sample 2×10^7 cells were used. The cells were lysed, and equal amounts of protein was fractionated on polyacrylamide gel and then transferred to PVDF membrane. The amount of the protein was detected by immuno-blotting with monoclonal anti-c-Jun or p-c-Jun antibodies (Cayman, Ann Arbor, Mich., USA). A second antibody conjugated to horseradish peroxidase was used and visualized with chemiluminescent Kit (Pierce, Rockford, Ill., USA) on film. […] Activation of the […] pathway produces p-c-Jun as a major end, while initiating apoptosis in certain cell-lines.

[6] = test system: Caspase 3 activity of LS1034 human colon MDR carcinoma cells; experiment: Caspase-3 activity in LS1034 human colon MDR carcinoma cells; type: cell-based; details: 10 or 20 μM, 4 hr after exposure
Procedure: Caspase 3 activity was measured by an enzymatic fluorimetric method using a fluorigenic substrate (Ac-DEVD-AMC), which produces blue fluorescence detected at 360 nm wavelength. […] When AMC is cleaved from the substrate by caspase-3, and caspase-3-like enzymes, it produces a yellow-green fluorescence, which can be monitored by a fluorimeter at 460 nm. The amount of yellow green fluorescence is proportional to the activity of caspase-3 in the cell extract sample.
Whole cell lysate was added to a buffer containing 100 μM peptide substrate, 100 mM HEPES, 10% glycerol, 1 mM EDTA and 10 mM dithiothreitol. Measurements were taken every 5 min for 80 min. These experiments were also monitored in the presence of a specific caspase-3 inhibitor, DEVD-AMC-CHO, which was added after 45 or 60 min to the reaction mixture, to ascertain the specificity of the enzyme.

[7] = test system: human tumor cell lines; experiment: In vitro antitumor activity in panel of 37 human tumor cell lines (Monolayer Assay, PI), summary; type: cell-based; details: mean over human cancer cell-lines
[8] = test system: human colon carcinoma cells (HT29); experiment: HT29 human colon carcinoma s.c. tumor in Nude CD1 male mice; type: in vivo
Source text: This example illustrates the effect of several compounds, including an exemplary compound of the present invention, on tumor volume. tumor weight and body weight in mice. Nude CD1 male mice were purchased from Harlan (Israel). Animals were housed under controlled conditions (temperature, humidity) and were given food and water ad libitum. After one week of acclimatization animals were inoculated s.c. with human colon carcinoma cells (HT29) (2,000,000 cell/animals.). Therapy began 8 days after inoculation, at which time the animals were divided randomly into 4 groups (7-8 mice/group) and administered ip 3 times weekly for 4 weeks with the following compounds: […] Body weight and tumor volume were measured weekly. Tumor volume is defined as (shortest diameter)^2×(longest diameter)×0.5. At the end of the treatment, animals were sacrificed and tumors and organs collected and weighed.

[9] = test system: human Jurkat lymphoma cells; experiment: Viability of human Jurkat lymphoma cells, alamar blue staining; type: cell-based; details: for IC50: Homo sapiens, 48 hr, alamar blue
Procedure: This example illustrates cell viability data derived from the incubation of a human. […] The results are depicted in FIGS. 1A, 1B, and 1C. […] See Nociari et al., J. Immunol. […] Each point represents the mean+/−SE of 4 determinations.

[10] = test system: Con-A activated naive mouse splenocytes; experiment: Con-A-induced mouse splenocyte proliferation, alamar blue staining; type: cell-based
Source text: This example illustrates cell viability data obtained by separately administering different concentrations of compound (Ia), paroxetine, citalopram, and ecitalopram to Con-A activated naive mouse splenocytes. FIG. 3A depicts the comparative effect of compound (Ia), paroxetine, citalopram and ecitalopram on Con-A-induced mouse splenocyte proliferation using alamar blue staining after 48 hr. Each point represents the mean+/−SE of 5 determinations.

[11] = test system: CEM/C1 cell-lines (camptothecin resistant human T-cell leukemia); experiment: Viability of CEM/C1 cell-line, alamar blue; type: cell-based; details: 1-30 μM
Source text: This cell-line is a camptothecin (CPT) resistant derivative of the human T-cell leukemia purchased from ATCC (USA). […] The results are depicted in FIG. 14. Each point represents the mean+/−SEM of 4 determinations.

[12] = test system: CEM/C1 human leukemia cells; experiment: Cell proliferation of CEM/C1 human leukemia cells, 3H thymidine incorporation; type: cell-based; details: for cell proliferation: 1 μM, 3H thymidine incorporation 24 hours; for effect on cell proliferation: already evident at 1 μM; for inhibition at 10 µM: Homo sapiens, 3H thymidine incorporation
Procedure: […] Cells, 10,000/well, were harvested and the incorporated radioactivity was determined by liquid scintillation in a beta counter.

[13] = test system: Jurkat Lymphoma cells; experiment: Viability of Jurkat Lymphoma cells, combination with Doxorubicin; type: cell-based; details: Homo sapiens, Doxorubicin 20 μM alone, read-out: inhibition of cell viability
[14] = test system: human keratinocytes (HaCat cells); experiment: Viability of human keratinocytes (HaCat cells), neutral red staining; type: cell-based; details: 24 hr, read-out: IC50, cell viability
[15] = FIG. 1C, read-out: IC50, inhibition of cell viability

For `C[C@@H]1C[C@H]2[C@@H]3CCC4=CC(=O)C=C[C@]4(C)[C@@]3(F)[C@@H](O)C[C@]2(C)[C@@]1(O)C(=O)CO` [dexamethasone, reference compound], the cytotoxicity at 20 µM [1] was 8%.
With `CN[C@H]1CC[C@@H](c2ccc(Cl)c(Cl)c2)c2ccccc21` [sertraline] the “potency compared with paroxetine” value ([2]; 10-30 μM, FIG. 2A) was “higher potency than paroxetine”, the “potency compared with paroxetine and fluoxetine” value ([2]; equimolar doses, FIG. 2B) was “significantly more potent than paroxetine and fluoxetine” and the “effect on cell viability” value [3] was “inhibit this glioma cell-line in a dose dependant fashion”. The “efficacy compared with paroxetine” value [3] was “higher efficacy than paroxetine”, the viability at 30 µM [4] was 60.3% and the “effect on c-Jun / p-c-Jun (MAPK pathway)” value [5] was “activation of the c-Jun-N-terminal kinase (JNK) pathway”. For the same compound, the caspase-3 activity [6] was “dose dependent increase in the activity of caspase-3”, the “mean IC70” value [7] was 13 µM and the “decrease in body weight” value ([8]; compared to 5 FU or controls, FIG. 18) was 10%. The “histopathological assessment of spleen, liver and kidney” value ([8]; end of treatment) was “change in capsule fibrosis at random”.
`CN(C)CCC[C@@]1(c2ccc(F)cc2)OCc2cc(C#N)ccc21` [ecitalopram, reference compound] was tested, and the “effect on cell viability” value ([9]; low concentrations (2.5 and 5.0 μM), FIG. 1A) was “slight decrease in cell-viability” and the effect on cell-viability ([10]; up to 30 μM) was “no effect on cell-viability”.
For `O=c1[nH]cc(F)c(=O)[nH]1` [5 FU, fluorouracil, reference compound], the tumor volume ([8]; HT29 tumor in nude mice, ip 3 times weekly, after 3 and 4 weeks of therapy, FIG. 16) was “significantly decreased compared to the control groups”.
With `OCCCC#Cc1cc2c(cc1OC[C@@H]1CNCC[C@H]1c1ccc(F)cc1)OCO2` [compound (Ib), (3S-trans)-3-((6-(5-hydroxy-1-pentyn-1-yl)-1,3-benzodioxol-5-yloxy)methyl)-4-(4-fluorophenyl)-piperidine] the IC50 [11] was 7.6 µM, the “effect compared to sertraline and paroxetine” value [12] was “significantly higher effects compared to sertraline and paroxetine” and the cell proliferation [12] was 43.6 % of controls. For the same compound, the “effect on cell proliferation” value [12] was “dose dependent decrease in cell proliferation”, the IC50 [9, 15] was 19.5 µM and the “potency compared with paroxetine” value ([9]; concentrations higher than 5 μM, FIG. 1C) was “higher potency than paroxetine”.
In the case of `COc1cccc2c1C(=O)c1c(O)c3c(c(O)c1C2=O)C[C@@](O)(C(=O)CO)C[C@@H]3O[C@H]1C[C@H](N)[C@H](O)[C@H](C)O1` [doxorubicin, reference compound], the cytotoxicity at 20 µM [13] is reported as 54%, the “effect on cell viability compared with the antidepressants and compound (Ia)” value ([2]; 10 and 20 μM, FIG. 2A) is reported as “more pronounced than that produced by the antidepressants and compound (Ia)” and the viability at 30 µM [4] is reported as 57.7%. For the same compound, the cell proliferation [12] was 65.7 % of controls and the inhibition at 10 µM [12] was ~95%.
In the case of `CN[C@H]1CC[C@@H](c2ccc(Cl)c(Cl)c2)c2ccc(C#CCCCOC)cc21.Cl` [compound (Ic), (1S-cis)-4-(3,4-dichlorophenyl)-7-(5-methoxy-1-pentyn-1-yl)-1,2,3,4-tetrahydro-N-methyl-1-naphthalenamine hydrochloride], the IC50 [11] is reported as 13.5 µM, the inhibition at 10 µM [12] is reported as ~95% and the “effect on cell proliferation” value [12] is reported as “dose dependent decrease in cell proliferation”. The IC50 ([9]; FIG. 1B, read-out: IC50, decrease in cell viability) was 17 µM and the “potency compared with sertraline” value ([9]; lower concentrations (1-10 μM), FIG. 1B) was “higher potency than sertraline”.
With `Fc1ccc([C@@H]2CCNC[C@H]2COc2ccc3c(c2)OCO3)cc1` [paroxetine, reference compound] the IC50 [11] was 12.3 µM, the IC50 [14] was 16 µM and the “effect on cell viability” value [3] was “inhibit this glioma cell-line in a dose dependant fashion”. For the same compound, the viability at 30 µM [4] was 74%, the caspase-3 activity [6] was “dose dependent increase in the activity of caspase-3” and the IC50 ([9]; FIG. 1A, read-out: IC50, anti-proliferative activity) was 37.7 µM. For the same compound, the IC50 [9, 15] was 37.6 µM and the IC50 ([10]; Splenocyte, 48 hr, alamar blue, read-out: IC50, inhibition in cell viability) was 11.9 µM.
